Reference: ChEMBL document CHEMBL5042471, “Development and Application of Subtype-Selective Fluorescent Antagonists for the Study of the Human Adenosine A1 Receptor in Living Cells” (J Med Chem, 2021)
Each block holds one compound with its values, some of them ahead of it. Calls of active or inactive are those of the source. The calls are words filed in the database; no cut-off is given here.

Assays:
[1] = target: T1, Adenosine receptor A1 (Homo sapiens, UniProt P30542); test: Displacement of [3H]DPCPX from human A1 adenosine receptor expressed in Flp-In-CHO cells by radioligand competitive binding assay; type: cell-based
T1 sequence (P30542 whole entry): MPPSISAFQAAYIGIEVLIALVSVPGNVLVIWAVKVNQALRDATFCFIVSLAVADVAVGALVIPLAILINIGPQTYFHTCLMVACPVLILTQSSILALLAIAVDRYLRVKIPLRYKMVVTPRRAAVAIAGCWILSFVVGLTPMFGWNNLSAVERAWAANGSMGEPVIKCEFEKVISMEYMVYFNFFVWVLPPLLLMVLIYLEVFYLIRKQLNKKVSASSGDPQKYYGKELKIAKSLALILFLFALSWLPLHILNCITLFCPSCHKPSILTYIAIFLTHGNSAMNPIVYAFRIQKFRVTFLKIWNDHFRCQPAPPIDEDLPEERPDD

[2] = target: T2, Adenosine receptor A3 (Homo sapiens, UniProt P0DMS8); test: Agonist activity at A3 adenosine receptor (unknown origin); type: functional
T2 sequence (P0DMS8 whole entry): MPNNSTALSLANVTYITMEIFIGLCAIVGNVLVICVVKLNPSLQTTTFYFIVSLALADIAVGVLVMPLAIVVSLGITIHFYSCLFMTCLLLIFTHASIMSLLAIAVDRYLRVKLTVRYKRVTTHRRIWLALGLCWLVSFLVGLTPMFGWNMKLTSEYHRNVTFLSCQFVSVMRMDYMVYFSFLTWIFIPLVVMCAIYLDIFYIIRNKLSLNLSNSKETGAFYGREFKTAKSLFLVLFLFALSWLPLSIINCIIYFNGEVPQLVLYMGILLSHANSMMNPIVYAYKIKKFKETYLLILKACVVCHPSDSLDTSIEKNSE

[3] = target: T1, Adenosine receptor A1; test: Binding affinity to NanoLuc human A1 adenosine receptor expressed in HEK293-A cells in prescence of SLV320 by NanoBRET competitive binding assay; type: cell-based
[4] = target: T1, Adenosine receptor A1; test: Binding affinity to NanoLuc-human A1 adenosine receptor expressed in HEK293-A cells assessed as kinetic dissociation constant by NanoBRET competitive binding assay; type: cell-based
[5] = target: T3, Adenosine receptor A1 (Homo sapiens) (UniProt P30542); test: Binding affinity to NanoLuc-human A1 adenosine receptor expressed in HEK293-A cells assessed as binding constant (kon) by NanoBRET competitive binding assay; type: cell-based; settings: filed as antagonist
T3 sequence (whole entry): T1 sequence (P30542 whole entry)

[6] = target: T1, Adenosine receptor A1; test: Binding affinity to NanoLuc human A1 adenosine receptor expressed in HEK293-A cells in prescence of NECA by NanoBRET competitive binding assay; type: cell-based
[7] = target: T1, Adenosine receptor A1; test: Binding affinity to NLuc human A1 adenosine receptor expressed in HEK293-A cells in presence of 1 uM SLV320 by NanoBRET binding assay; type: cell-based
[8] = target: T3, Adenosine receptor A1 (Homo sapiens); test: Antagonist activity at human A1 adenosine receptor expressed in Flp-In-CHO cells assessed as reduction in NECA-mediated inhibition of forskolin stimulated cAMP accumulation by cAMP assay; type: functional, cell-based; settings: filed as antagonist
[9] = target: T2, Adenosine receptor A3; test: Binding affinity to NLuc human A3 adenosine receptor expressed in HEK293-A cells in presence of 1 uM MRS1220 by NanoBRET binding assay; type: cell-based
[10] = target: T3, Adenosine receptor A1 (Homo sapiens); test: Binding affinity to NanoLuc-human A1 adenosine receptor expressed in HEK293-A cells assessed as binding constant (koff) by NanoBRET competitive binding assay; type: cell-based; settings: filed as antagonist
[11] = target: T4, Adenosine receptor A2b (Homo sapiens, UniProt P29275); test: Binding affinity to NLuc human A2B adenosine receptor expressed in HEK293-A cells in presence of 1 uM PSB603 by NanoBRET binding assay; type: cell-based
T4 sequence (P29275 whole entry): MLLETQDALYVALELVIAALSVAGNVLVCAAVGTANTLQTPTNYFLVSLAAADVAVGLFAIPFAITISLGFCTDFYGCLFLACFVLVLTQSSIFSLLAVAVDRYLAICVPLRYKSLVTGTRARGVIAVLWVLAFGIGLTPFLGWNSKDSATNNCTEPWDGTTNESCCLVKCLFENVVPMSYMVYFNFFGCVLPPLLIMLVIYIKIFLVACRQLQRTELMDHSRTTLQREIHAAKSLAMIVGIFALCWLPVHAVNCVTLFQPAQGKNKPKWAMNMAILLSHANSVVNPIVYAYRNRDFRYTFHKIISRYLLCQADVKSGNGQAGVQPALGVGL

[12] = target: T3, Adenosine receptor A1 (Homo sapiens); test: Binding affinity to NLuc human A1 adenosine receptor expressed in HEK293-A cells assessed as maximal binding capacity in presence of 1 uM SLV320 by NanoBRET binding assay; type: cell-based; settings: filed as antagonist
[13] = target: T1, Adenosine receptor A1; test: Binding affinity to NanoLuc human A1 adenosine receptor expressed in HEK293-A cells in prescence of DPCPX by NanoBRET competitive binding assay; type: cell-based
[14] = target: T3, Adenosine receptor A1 (Homo sapiens); test: Binding affinity to SNAP-tagged-human A1 adenosine receptor expressed in HEK293 cells assessed as red fluorescent spot in plasma membrane pre-incubated with 10 uM SLV320 by microscopy based TIRF assay; type: cell membranes
[15] = target: T5, Adenosine receptor A2a (Homo sapiens, UniProt P29274); test: Binding affinity to NLuc human A2A adenosine receptor expressed in HEK293-A cells in presence of 1 uM ZM241385 by NanoBRET binding assay; type: cell-based
[16] = target: T3, Adenosine receptor A1 (Homo sapiens); test: Binding affinity to SNAP-tagged-human A1 adenosine receptor expressed in HEK293 cells at 50 nM after 30 mins in presence of SLV320 by confocal microscopy method; type: cell-based
[17] = target: T1, Adenosine receptor A1; test: biochemical
Description: Displacement of [3H]DPCPX from human A1 adenosine receptor expressed in CHO-K1 cells by radioligand binding assay

[18] = target: T5, Adenosine receptor A2a; test: Binding affinity to NLuc human A2A adenosine receptor expressed in HEK293-A cells assessed as maximal binding capacity in presence of 1 uM ZM241385 by NanoBRET binding assay; type: cell-based; settings: filed as antagonist
[19] = target: T6, Adenosine receptor A3 (Homo sapiens) (UniProt P0DMS8); test: Binding affinity to NLuc human A3 adenosine receptor expressed in HEK293-A cells assessed as maximal binding capacity in presence of 1 uM MRS1220 by NanoBRET binding assay; type: cell-based; settings: filed as antagonist
T6 sequence (whole entry): T2 sequence (P0DMS8 whole entry)

[20] = target: T3, Adenosine receptor A1 (Homo sapiens); test: Binding affinity to SNAP-tagged-human A1 adenosine receptor expressed in HEK293 cells at 10 nM after 30 mins in presence of SLV320 by confocal microscopy method; type: cell-based
[21] = target: T7, Adenosine receptor A2b (Homo sapiens) (UniProt P29275); test: Binding affinity to NLuc human A2B adenosine receptor expressed in HEK293-A cells assessed as maximal binding capacity in presence of 1 uM PSB603 by NanoBRET binding assay; type: cell-based; settings: filed as antagonist
T7 sequence (whole entry): T4 sequence (P29275 whole entry)

[22] = target: T3, Adenosine receptor A1 (Homo sapiens); test: Binding affinity to SNAP-tagged-human A1 adenosine receptor expressed in HEK293 cells at 5 nM after 30 mins in presence of SLV320 by confocal microscopy method; type: cell-based

T5 sequence (P29274 whole entry): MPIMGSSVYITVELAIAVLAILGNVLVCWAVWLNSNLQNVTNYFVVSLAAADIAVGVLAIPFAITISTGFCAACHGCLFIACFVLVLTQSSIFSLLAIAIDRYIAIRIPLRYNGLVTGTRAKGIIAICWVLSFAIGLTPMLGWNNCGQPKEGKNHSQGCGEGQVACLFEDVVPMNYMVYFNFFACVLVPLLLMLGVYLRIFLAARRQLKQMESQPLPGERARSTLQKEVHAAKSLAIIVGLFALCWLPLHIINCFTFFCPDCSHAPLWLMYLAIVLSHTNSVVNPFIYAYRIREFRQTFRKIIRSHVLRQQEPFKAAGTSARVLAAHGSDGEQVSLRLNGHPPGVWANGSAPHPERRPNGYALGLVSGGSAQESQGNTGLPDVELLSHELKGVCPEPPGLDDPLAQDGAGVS

SMILES: CCCn1c(=O)c2[nH]c(C34CCC(C(=O)NCCC(=O)NCCNC(=O)COCCNC(=O)OC(C)(C)C)(CC3)CC4)nc2n(CCC)c1=O
Ki [1]: 11.2 nM

SMILES: CCCn1c(=O)c2[nH]c(C34CCC(C(=O)NCCNC(=O)CCNC(=O)CCNC(=O)OC(C)(C)C)(CC3)CC4)nc2n(CCC)c1=O
Ki [1]: 4.37 nM

SMILES: CCNC(=O)[C@H]1O[C@@H](n2cnc3c(NCCCCNC(=O)CNC(=O)[C@@H](C)NC(=O)[C@@H](C)NC(=O)CCCCCNC(=O)COc4ccc(/C=C/C5=[N+]6C(=Cc7ccc(-c8cccs8)n7[B-]6(F)F)C=C5)cc4)ncnc32)[C@H](O)[C@@H]1O
EC50 [2]: 3.31 nM

SMILES: CCCn1c(=O)c2[nH]c(C34CCC(CCC(=O)NCCNC(=O)COCCNC(=O)OC(C)(C)C)(CC3)CC4)nc2n(CCC)c1=O
Ki [1]: 14.8 nM

SMILES: CCCn1c(=O)c2[nH]c(C34CC5CC(CC(C5)C3)C4)nc2n(CCCNC(=O)c2ccc(C(=O)NCCNC(=O)CCNC(=O)CCCCCNC(=O)COc3ccc(/C=C/C4=[N+]5C(=Cc6ccc(-c7cccs7)n6[B-]5(F)F)C=C4)cc3)cc2)c1=O
Ki [3]: 1.41 nM | Bmax [18]: 0.003 | Kd [4]: 13.2 nM | K [5]: 3.6 10^6/M/min | Bmax [19]: 0.001 | Ki [6]: 1100 nM | Ki [1]: 9.77 nM | Kd [7]: 3.16 nM | pKb [8]: 8.72 | Kd [9]: 58.9 nM | Activity [20]: inactive | K [10]: 0.046 min⁻¹ | Kd [11]: 55 nM | Bmax [12]: 0.019 | Ki [13]: 20.9 nM | Kd [15]: 50.1 nM | Bmax [21]: 0.004

SMILES: CCCn1c(=O)c2[nH]c(C34CCC(C(=O)NCCNC(=O)CCCCCNC(=O)COc5ccc(/C=C/C6=[N+]7C(=Cc8ccc(-c9cccs9)n8[B-]7(F)F)C=C6)cc5)(CC3)CC4)nc2n(CCC)c1=O
Ki [1]: 20.4 nM

SMILES: CCCn1c(=O)c2[nH]c(C34CC5CC(CC(C5)C3)C4)nc2n(CCCNC(=O)c2ccc(C(=O)NCCNC(=O)CCCCC[N+]3=C(/C=C/C=C/C=C4/N(C)c5ccc(S(=O)(=O)O)cc5C4(C)C)C(C)(C)c4cc(S(=O)(=O)[O-])ccc43)cc2)c1=O
Ki [1]: > 10000 nM

SMILES: CCCn1c(=O)c2[nH]c(C34CC5CC(CC(C5)C3)C4)nc2n(CCCNC(=O)c2ccc(C(=O)NCCNC(=O)CCCCCNC(=O)COc3ccc(/C=C/C4=[N+]5C(=Cc6ccc(-c7cccs7)n6[B-]5(F)F)C=C4)cc3)cc2)c1=O
Ki [1]: 5.89 nM

SMILES: CCCn1c(=O)c2[nH]c(C34CCC(C(=O)NCCNC(=O)COCCNC(=O)OC(C)(C)C)(CC3)CC4)nc2n(CCC)c1=O
Ki [1]: 13.8 nM

SMILES: CCCn1c(=O)c2[nH]c(C34CC5CC(CC(C5)C3)C4)nc2n(CCCNC(=O)c2ccc(C(=O)NCCNC(=O)CCNC(=O)CCCCC[N+]3=C(/C=C/C=C/C=C4/N(C)c5ccc(S(=O)(=O)O)cc5C4(C)C)C(C)(C)c4cc(S(=O)(=O)[O-])ccc43)cc2)c1=O
Ki [1]: > 10000 nM

SMILES: CCCn1c(=O)c2[nH]c(C34CCC(C(=O)NCCNC(=O)CCNC(=O)CCNC(=O)CCCCCNC(=O)COc5ccc(/C=C/C6=[N+]7C(=Cc8ccc(-c9cccs9)n8[B-]7(F)F)C=C6)cc5)(CC3)CC4)nc2n(CCC)c1=O
Bmax [18]: 0.035 | Kd [4]: 3.09 nM | K [5]: 17.9 10^6/M/min | Bmax [19]: 0.012 | Ki [1]: 0.288 nM | Kd [7]: 1.17 nM | pKb [8]: 9.75 | Activity [22]: inactive | Kd [9]: 135 nM | K [10]: 0.054 min⁻¹ | Kd [11]: 7.76 nM | Bmax [12]: 0.018 | Kd [15]: 28.2 nM | Bmax [21]: 0.016

Continued by falling Ki [1], values first:

Ki [1]: 851 nM
SMILES: CCCn1c(=O)c2[nH]c(C34CCC(C(=O)NCCNC(=O)CCCCC[N+]5=C(/C=C/C=C/C=C6/N(C)c7ccc(S(=O)(=O)O)cc7C6(C)C)C(C)(C)c6cc(S(=O)(=O)[O-])ccc65)(CC3)CC4)nc2n(CCC)c1=O

Ki [3]: 0.708 nM | Kd [4]: 138 nM | K [5]: 0.86 10^6/M/min | Ki [6]: 398 nM | Ki [1]: 200 nM | Kd [7]: 44.7 nM | pKb [8]: 7.12 | Kd [9]: > 1000 nM | K [10]: 0.117 min⁻¹ | Kd [11]: > 1000 nM | Bmax [12]: 0.03 | Ki [13]: 7.41 nM | Activity [14]: inactive | Kd [15]: > 1000 nM | Activity [16]: inactive
SMILES: CCCn1c(=O)c2[nH]c(C34CCC(C(=O)NCCNC(=O)CCNC(=O)CCNC(=O)CCCCC[N+]5=C(/C=C/C=C/C=C6/N(C)c7ccc(S(=O)(=O)O)cc7C6(C)C)C(C)(C)c6cc(S(=O)(=O)[O-])ccc65)(CC3)CC4)nc2n(CCC)c1=O

Ki [1]: 22.4 nM
SMILES: CCCn1c(=O)c2[nH]c(C34CCC(C(=O)NCCCNC(=O)COCCOCCNC(=O)OC(C)(C)C)(CC3)CC4)nc2n(CCC)c1=O

Ki [1]: 17.4 nM
SMILES: CCCn1c(=O)c2[nH]c(C34CCC(C(=O)NCCNC(=O)COCCOCCNC(=O)OC(C)(C)C)(CC3)CC4)nc2n(CCC)c1=O

Ki [1]: 16.2 nM
SMILES: CCCn1c(=O)c2[nH]c(C34CCC(C(=O)NCCCNC(=O)COCCNC(=O)OC(C)(C)C)(CC3)CC4)nc2n(CCC)c1=O

Ki [1]: 13.2 nM
SMILES: CCCn1c(=O)c2[nH]c(C34CCC(CCC(=O)NCCNC(=O)COCCOCCNC(=O)OC(C)(C)C)(CC3)CC4)nc2n(CCC)c1=O

Ki [1]: 12.9 nM
SMILES: CCCn1c(=O)c2[nH]c(C34CCC(C(=O)NCCCNC(=O)CCNC(=O)CCNC(=O)OC(C)(C)C)(CC3)CC4)nc2n(CCC)c1=O

Ki [1]: 7.76 nM
SMILES: CCCn1c(=O)c2[nH]c(C34CCC(CCC(=O)NCCNC(=O)CCNC(=O)CCNC(=O)OC(C)(C)C)(CC3)CC4)nc2n(CCC)c1=O

Ki [17]: 1 nM | Ki [1]: 1.7 nM
SMILES: O[C@H]1CC[C@H](Nc2nc(-c3ccccc3)nc3[nH]ccc23)CC1
